These results are taken from patent EP4650362A1, “NEUROPROTECTIVE PSD-95 POLYPEPTIDE INHIBITOR AND USE THEREOF” (Beijing Tuo Jie Biopharmaceutical Co. Ltd., priority 2023, dated 2024).

Read-outs that look alike come from different tables or passages of the source. Non-standard residues stand in square brackets, D forms with d. Residues, ends and D or L forms follow the SMILES beside them. Tle = CC(C)(C)[C@H](N)C(=O)O; Dab = NCC[C@H](N)C(=O)O; Aib = CC(C)(N)C(=O)O

The term EC50 denotes the concentration that produces a half-maximal response.

One series relates to rabbit whole blood. The experiment in a line: hemolysis risk test in rabbit whole blood. The series is classed as cell-based. Particulars: concentration range of 1 to 50 µM. The method, then:
Preparation of red blood cell suspension: 100 µL of fresh whole blood was collected, and 900 µL of 1× PBS solution was then added. The mixture was shaken on a plate shaker at 30 rpm for 5 min and then centrifuged at 1000 g for 5 min, and the supernatant was discarded. The above washing step was repeated until the supernatant no longer appeared red. The suspension was set aside for later use.
Preparation of test polypeptide solutions: An appropriate amount of 1× PBS solution was added to a powdered polypeptide, and the polypeptide was dissolved to form a standard stock solution. The stock solution was then diluted with 1× PBS to form test solutions with concentrations of 1, 3, 10, 30, 100, and 300 µg/mL, and two replicate wells were set for each concentration. Meanwhile, blank 1× PBS was used as a negative control, and a 1× PBS solution containing 0.1% Triton X-100 was used as a positive control.
Incubation: A test solution (500 µL) was added to the red blood cell suspension, and then the mixture was well shaken on a plate shaker at 30 rpm for 5 min, incubated at 37 °C for 1 h, and centrifuged at 1000 g for 5 min.
100 µL of the supernatant was transferred to a single well of a microplate. The absorbance at 540 nm was measured using a SpectraMax M5 microplate reader, and data analysis was performed using GraphPad Prism 9. The hemolysis rate (%) was calculated using the formula: (test sample absorbance - negative control absorbance) / (positive control absorbance - negative control absorbance) × 100%. A rate of less than 5% indicates the absence of hemolysis, while a rate of greater than 5% indicates the presence of hemolysis. Table 3. Testing of the hemolysis risk of the polypeptide compound
A method similar to that in section 3.3.2 was adopted, with the difference being that this test example used fresh rabbit whole blood instead.

Series [1] in a line: plasma stability test, human plasma. Particulars: for Relative remaining compound content (%): 0min (standard 100%). The format is in vitro ADME. The method, then:
(§1) Solution preparation: An appropriate amount of a test polypeptide compound was weighed out and dissolved in an appropriate amount of 1× PBS to form a 1 mM test solution. NA-1 and NoNO42 were used as positive drugs, propantheline bromide was used as a human plasma test control, and lovastatin was used as a rat plasma test control. Plasma stability test: 12.5 µL of the 1 mM test solution was added to a 495 µL pre-incubated plasma sample. […] For each incubation time, two parallel samples were set. Subsequently, 200 µL of stop solution was added to stop the incubation, and the mixtures were vortexed for 5 min. Then the mixtures were centrifuged at 10,000 rpm at 4 °C for 10 min to remove the protein in the sample, and 70 µL of the supernatant was transferred to a new 96-well plate (70 µL of water was added to each well beforehand) and well mixed. […] Sample pretreatment: […] LC-MS analysis: […] (2) Mass-spectrometric conditions: The mass spectrometry analysis used an electrospray ionization (ESI) source, a positive ion analysis mode, and a multi-reaction monitoring (MRM) scan mode. […] The plasma stability of the polypeptide compound

A short description of series [2]: plasma stability test, rat plasma. The format is in vitro ADME. The method, then:
as §1

The target in another series is T1, human PSD95-PDZ2 (Homo sapiens, UniProt P78352).
T1 construct: PDZ2 (155-249, the Flag-His-Avitag-TEVsite tag is italicized); made in house; host or cells: E. coli BL21-DE3 (PET vector)
T1 sequence (P78352 155-249): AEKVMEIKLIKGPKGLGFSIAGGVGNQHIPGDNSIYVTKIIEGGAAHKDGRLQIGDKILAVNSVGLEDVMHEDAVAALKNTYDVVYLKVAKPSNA
The series can be described thus: binding ELISA with Biotin-PDZ2. The text has this: The three PDZ domains in the PSD95 protein are structurally similar. Binding to the PDZ1 and PDZ2 domains can effectively block PSD95-mediated neuroexcitotoxicity. However, the biological function of binding to the PDZ3 domain is unclear. Therefore, to avoid potential safety concerns, this test example assessed the selectivity of polypeptide compounds for the PDZ2 and PDZ3 domains, aiming to identify polypeptide compounds that specifically bind to the PDZ2 domain. Site-specifically biotinylated Biotin-PDZ2 and Biotin-PDZ3 proteins were used for binding ELISA assays. […] After the blocking was complete, the blocking solution was discarded, and the plate was washed three times with PBST buffer. […] After the incubation was complete, the reaction solutions in the microplate were discarded, and the plate was washed three times with PBST. 100 µL of HRP-SA secondary antibody (diluted at 1:2000) was added to each well, and the plate was incubated at 37 °C for 1 h. After the plate was washed three times with PBST, 100 µL of TMB chromogenic substrate was added. […] The absorbance at 450 nm was measured using a SpectraMax M5 microplate reader, and the binding EC50 values of the test compounds to Biotin-PDZ2 or Biotin-PDZ3 were calculated using GraphPad Prism 9. […] The abilities of polypeptide compounds to bind to human PSD95-PDZ2 and human PSD95-PDZ3
On the technique in general: ELISA stands for enzyme-linked immunosorbent assay.

Series [3] in a line: plasma stability test with alteplase added, human plasma. The format is in vitro ADME. Particulars: Human plasma + rt-PA (50 µg/mL alteplase), 25 µM. Here is the method:
as §1, with “mixed. Plasma stability test with alteplase added: An appropriate amount of solid alteplase was weighed out, and an appropriate volume of water was added. The mixture was vortexed to dissolve alteplase, forming a 1 mg/mL solution of alteplase. 250 µL of the 1 mg/mL solution of alteplase was added to 4750 µL of plasma to form a plasma sample containing 50 µg/mL alteplase. The other procedures were the same as in the aforementioned "plasma stability test", with the difference being that the plasma sample containing 50 µg/mL alteplase was used instead of plasma.” for “mixed.”

[4] abbreviates: Human plasma, 25 µM, 10min, read-out: Relative remaining compound content (%).
[5] abbreviates: Human plasma, 25 µM, 20min, read-out: Relative remaining compound content (%).
[6] abbreviates: Human plasma, 25 µM, 30min, read-out: Relative remaining compound content (%).
Setting [7] is: Human plasma, 25 µM, 60min, read-out: Relative remaining compound content (%).
The mark [8] stands for this setting: Human plasma, 25 µM, 120min, read-out: Relative remaining compound content (%).
Where [9] appears, read: Rat plasma, 25 µM, 0min (standard 100%).
[10] abbreviates: Rat plasma, 25 µM, 10min, read-out: Relative remaining compound content (%).
Where [11] appears, read: Rat plasma, 25 µM, 20min, read-out: Relative remaining compound content (%).
Where [12] appears, read: Rat plasma, 25 µM, 30min, read-out: Relative remaining compound content (%).
Where [13] appears, read: Rat plasma, 25 µM, 60min, read-out: Relative remaining compound content (%).

In the case of `CC[C@H](C)[C@H](NC(=O)[C@H](CO)NC(=O)[C@H](CO)NC(=O)[C@H](CC(C)C)NC(=O)[C@@H](CCCCN)NC(=O)[C@H](CCCNC(=N)N)NC(=O)[C@H](CCCNC(=N)N)NC(=O)[C@@H](CCCNC(=N)N)NC(=O)[C@H](CCC(N)=O)NC(=O)[C@@H](CCCNC(=N)N)NC(=O)[C@H](CCCNC(=N)N)NC(=O)[C@H](CCCCN)NC(=O)[C@H](CCCCN)NC(=O)[C@@H](CCCNC(=N)N)NC(=O)CNC(=O)[C@@H](N)Cc1ccc(O)cc1)C(=O)N[C@@H](CCC(=O)O)C(=O)N[C@@H](CO)C(=O)N[C@@H](CC(=O)O)C(=O)N[C@H](C(=O)O)C(C)C` [NoNO42, YGrKKRrQrRRkLSSIESDV, reference compound] (H-YG[dR]KKR[dR]Q[dR]RR[dK]LSSIESDV-OH), in the series with rabbit whole blood, the hemolysis rates entry is “less than 5%”. For the same compound, in series [1] (human, plasma), the fraction remaining at 10 min, 25 µM stood at 104%; the amount remaining at 20 min, 25 µM is 104%; the fraction remaining at 0.5 h, 25 µM turned out to be 107%; the fraction remaining at 1 h, 25 µM came to 99.3%. For the same compound, the fraction remaining at 2 h, 25 µM in series [1] (human, plasma) was found to be 107%. Besides, in series [2] (rat, plasma), the fraction remaining at 10 min, 25 µM worked out at 98.4%; the amount remaining at 20 min, 25 µM was 93.6%; the fraction remaining at 0.5 h, 25 µM was 93.6%; the fraction remaining at 1 h, 25 µM worked out at 90.8%. Also, the amount remaining at 2 h, 25 µM in series [2] (rat, plasma) amounted to 95%. Further, a half-maximal response on human PSD95-PDZ2 (EC50) required 98 nM.

On to `CC(C)[C@H](NC(=O)[C@H](CC(=O)O)NC(=O)[C@@H](NC(=O)[C@@H](NC(=O)[C@@H](NC(=O)[C@@H](NC(=O)[C@H](CCN)NC(=O)C(C)(C)NC(=O)CNC(=O)[C@@H](CCCNC(=N)N)NC(=O)[C@@H](CCCNC(=N)N)NC(=O)[C@@H](CCCNC(=N)N)NC(=O)[C@@H](CCC(N)=O)NC(=O)[C@@H](CCCNC(=N)N)NC(=O)[C@@H](CCCNC(=N)N)NC(=O)[C@@H](CCCCN)NC(=O)[C@@H](CCCCN)NC(=O)[C@@H](CCCNC(=N)N)NC(=O)CNC(=O)[C@H](N)Cc1ccc(O)cc1)[C@@H](C)O)C(C)(C)C)C(C)(C)C)[C@@H](C)O)C(=O)O` [Polypeptide compound 14, y-G-r-k-k-r-r-q-r-r-r-G-Aib-Dab-T-Tle-Tle-T-D-V] (H-[dY]G[dR][dK][dK][dR][dR][dQ][dR][dR][dR]G[Aib][Dab]T[Tle][Tle]TDV-OH), for which the “Relative remaining compound content (%)” value in series [3] (0min (standard 100%)) was 100.0%; in series [3] (10min), 98.6%; in series [3] (20min), 89.8%; in series [3] (30min), 85.8%; in series [3] (60min), 91.2%; in series [3] (120min), 92.3%. Further, the “Relative remaining compound content (%)” value in series [1] (Human plasma, 25 µM) is listed as 100.0%; in series [2] (setting [9]), 100.0%. Moreover, the hemolysis rates entry in the series on rabbit whole blood is reported as “less than 5%”. Moreover, the amount remaining at 10 min, 25 µM in series [1] (setting [4]) is 102%; in series [2] (setting [10]) it was 105%. Also, the values for the share remaining at 20 min, 25 µM in series [1] (setting [5]) and in series [2] (setting [11]) were 101% and 117%, respectively. Also, the amount remaining at 0.5 h, 25 µM in series [1] (setting [6]) was 97.3%; in series [2] (setting [12]), 107%. In addition, the fraction remaining at 1 h, 25 µM in series [1] (setting [7]) stood at 103%; in series [2] (setting [13]) it was 109%. The fraction remaining at 2 h, 25 µM in series [1] (setting [8]) is 105%; in series [2] (Rat plasma, 25 µM, 120min, read-out: Relative remaining compound content (%)) it was 104%. The EC50 at human PSD95-PDZ2 (plate coated with 2 µM test compound, Biotin-PDZ2 titrated, read-out: EC50 (PDZ2)) came out at 76 nM.

On to `CC(C)[C@H](NC(=O)[C@H](CC(=O)O)NC(=O)[C@@H](NC(=O)[C@@H](NC(=O)[C@@H](NC(=O)[C@@H](NC(=O)[C@H](CCN)NC(=O)C(C)(C)NC(=O)CNC(=O)[C@@H](CCCNC(=N)N)NC(=O)[C@H](CCCNC(=N)N)NC(=O)[C@H](CCCNC(=N)N)NC(=O)[C@H](CCC(N)=O)NC(=O)[C@@H](CCCNC(=N)N)NC(=O)[C@H](CCCNC(=N)N)NC(=O)[C@H](CCCCN)NC(=O)[C@H](CCCCN)NC(=O)[C@H](N)CCCNC(=N)N)[C@@H](C)O)C(C)(C)C)C(C)(C)C)[C@@H](C)O)C(=O)O` [Polypeptide compound 22, r-K-K-R-r-Q-R-R-r-G-Aib-Dab-T-Tle-Tle-T-D-V] (H-[dR]KKR[dR]QRR[dR]G[Aib][Dab]T[Tle][Tle]TDV-OH), for which the “Relative remaining compound content (%)” value in series [3] (0min (standard 100%)) turned out to be 100.0%; in series [3] (10min) it was 97.9%; in series [3] (20min) it was 95.8%; in series [3] (30min), 102.8%; in series [3] (60min) it was 91.3%; in series [3] (120min), 95.6%. Also, the “Relative remaining compound content (%)” value was 100.0% in series [1] (Human plasma, 25 µM); 100.0% in series [2] (setting [9]); 124.8% in series [2] (Rat plasma, 25 µM, 120min). Besides, the hemolysis rates result in the series with rabbit whole blood is “less than 5%”. Moreover, the figures for the amount remaining at 10 min, 25 µM in series [1] (setting [4]) and in series [2] (setting [10]) were 99.5% and 116%, respectively. Further, the share remaining at 20 min, 25 µM in series [1] (setting [5]) is 97%; in series [2] (setting [11]) it was 105%. In addition, the fraction remaining at 0.5 h, 25 µM in series [1] (setting [6]) was 104%; in series [2] (setting [12]), 110%. Also, the amount remaining at 1 h, 25 µM in series [1] (setting [7]) was found to be 98%; in series [2] (setting [13]) it was 102%. Moreover, the amount remaining at 2 h, 25 µM in series [1] (setting [8]) amounted to 90.1%.
